# Values quoted from earlier work, collected in patent US6337320B1, “Reparatives for ultraviolet radiation skin damage” (Thione International, Inc., priority 1996, dated 2002).
# How the values were obtained:
# [1] = oral, prolonged periods
# [2] = tested on: mice
# [3] = tested on: vitamin E deficient chicks
# [4] = tested on: human subjects
# [5] = tested on: patients with psoriasis
# [6] = tested on: human leukocytes
compound,measurement,setting,value
[Se] [selenium],dose at which selenium toxicities occur,[1],> 4000 micrograms per day
C[Se]CC[C@H](N)C(=O)O [selenomethionine],concentration of selenium in skin in areas of topical application,"[2]; lotion, topical vs comparable oral doses",greater than those of the experimental animals given comparable oral doses
same,"skin damage by ultraviolet irradiation (inflammation, pigmentation, onset and incidence of skin cancers)","[2]; mice treated with selenomethionine, ultraviolet irradiation",significantly less skin damage
same,selenium toxicity,"[2]; mouse, in vivo, po",no evidence of selenium toxicity
same,in vivo lipid peroxidation in tissues,[3],inhibits
same,"protection against acute UV damage to the skin, as measured by the minimal erythema dose","[4]; eight women, topical lotion 0.002%, 0.02% and 0.05%",effective
same,plasma levels of selenium,"[4]; volunteers, topical application",remained unchanged
same,skin levels of selenium dependent glutathione peroxidase,[5]; normal and psoriatic skin,unchanged
same,increase in blood levels post treatment,[5]; psoriasis patients with normal pretreatment selenium blood levels,40%
same,number of CD4+T-cells,[5]; reticular dermis of the psoriatic lesions,statistically significant increase
(−)epigallo catechin gallate [EGCG],hydrogen peroxide formation,[6],inhibits
